Laboratory results as given in patent US10953015B2, “Use of adenosine receptor signaling to regulate P-gp function” (CORNELL UNIVERSITY, priority 2016, dated 2021).

Columns and labels:
P-gp [1] = experiment: Microscopic (IFA) analysis of Rho123 uptake in primary human brain endothelial cells; type: cell-based; settings: 2.5 μM Rho123, 1 μM agonist, 15 minutes to 24 hours
Procedure: Human brain endothelial cells and primary brain endothelial cells were plated onto 48-well plates until 100% confluence was reached, and media were replaced with fresh media containing Rho123 (2.5 μM) with different concentrations of Lexiscan®, NECA, or PSC833. Reaction was halted by adding 250 μl of ice-cold PBS. Plate was washed with 250 μl of ice-cold PBS 3 times and lysed with lysis buffer. Each sample was analyzed using Synergy Fluometer (Biotek), with excitation at 488 nm and emission at 523 nm. Concentration of Rho123 was analyzed using standard curve created by serial dilution of Rho123. Final concentration of Rho123 was normalized using protein concentration of lysate measured using Bradford assay (Bio-Rad). For microscopic analysis of Rho123 uptake, cells were cultured on coverslip and Rho123 was treated with or without Lexiscan® or NECA with DMSO as control. Reaction was terminated by adding ice-cold PBS and washed with ice-cold PBS 3 times. Cells were fixed with PFA and costained with anti-human P-gp. Cells were visualized with a Zeiss fluorescent microscope and captured with axiovision software. FIG. 4G is a schematic illustration of the Rho123 uptake assay.

P-gp [2] = target: T1, P-gp (Mus musculus, UniProt P21447); experiment: Epirubicin brain accumulation assay; type: in vivo; settings: mice
T1 construct: down-modulation of P-gp expression and function in brain vascular endothelial cells in WT mice; from tissue; host or cells: brain of WT mice
Procedure: FIG. 12A is a fluorescence microscopy image showing immunofluorescence images of brains from Lexiscan®-treated mice of WT brain at 15 and 30 minutes after Lexiscan® treatment. Frozen brain sections were stained with GLUT1 (red), or P-gp (green) and counterstained with DAPI (blue). FIG. 12B is a fluorescence microscopy image showing an enlarged image of FIG. 12A. FIG. 12C is a graph summarizing the experimental results of a brain epirubicin accumulation assay in the Lexiscan®- and vehicle-treated (control) mice. Briefly, 10 mg/kg of epirubicin was injected intravenously with or without 0.05 mg/kg of Lexiscan®. Mice were perfused with ice-cold PBS and sacrificed at different time points. The accumulation of epirubicin in the brain was measured using fluorometric excitation at 488 nm and emission at 590 nm. *P<0.05 (n=4, 2-tailed Student's t test). FIG. 12D are fluorescence microscopy images showing fluorescent microscopic analysis of epirubicin accumulation in the brains of mice treated with Lexiscan® or PSC833 (a functional P-gp inhibitor) compared with vehicle (control). 10 mg/kg of epirubicin was injected intravenously with or without 0.05 mg/kg of Lexiscan® or 50 mg/kg of PSC833 for 15 minutes. Mice were perfused with ice-cold PBS and sacrificed. Brain was sectioned for microscopic analysis for full-brain image, and focal zoomed image from cortex was laid as an inset. Epirubicin is in red, and nucleus was counterstained with DAPI (blue). FIG. 12E are graphs showing the quantified intensity of epirubicin from different regions of cortex (CTX), cerebellum (CRBL), and hippocampus (HPC) from brains of control, Lexiscan®-, or PSC833-injected animals and depicted as graphs. The scale bars indicate 100 μm in FIG. 12A; 50 μm in FIG. 12B, and 5 mm in FIG. 12D). ***P<0.001 (n=50, 2-tailed Student's t test).
FIG. 14A is a western blot of P-gp and BCRP1 from mouse brain at 2 and 18 hours after NECA treatment. FIG. 14B are graphs showing the enumeration of the expression intensity of P-gp and BCRP1 from the western blots shown in FIG. 14A. The intensity of the bands from NECA treatment group was divided by that of DMSO control. […] For fluorescence microscopy, frozen brain sections were stained with GLUT1 (red) or P-gp (green) and counterstained with DAPI (blue). […] The accumulation of epirubicin in the brain was measured using fluorometry, with excitation at 488 nm and emission at 590 nm. *P<0.05 (n=4, 2-tailed Student's t test).
For Lexiscan® study, 10 mg/kg of epirubicin was injected with or without Lexiscan® (0.05 mg/kg) at different time points, and mice were sacrificed. […] Samples were spun down at 17,000 g for 30 minutes, and the concentration for epirubicin was analyzed with fluorimetry with […].

BCRP1/ABCG2 = experiment: BCRP1 expression in brain of WT mice (western blot); type: in vivo, mouse

T1 sequence (P21447 whole entry): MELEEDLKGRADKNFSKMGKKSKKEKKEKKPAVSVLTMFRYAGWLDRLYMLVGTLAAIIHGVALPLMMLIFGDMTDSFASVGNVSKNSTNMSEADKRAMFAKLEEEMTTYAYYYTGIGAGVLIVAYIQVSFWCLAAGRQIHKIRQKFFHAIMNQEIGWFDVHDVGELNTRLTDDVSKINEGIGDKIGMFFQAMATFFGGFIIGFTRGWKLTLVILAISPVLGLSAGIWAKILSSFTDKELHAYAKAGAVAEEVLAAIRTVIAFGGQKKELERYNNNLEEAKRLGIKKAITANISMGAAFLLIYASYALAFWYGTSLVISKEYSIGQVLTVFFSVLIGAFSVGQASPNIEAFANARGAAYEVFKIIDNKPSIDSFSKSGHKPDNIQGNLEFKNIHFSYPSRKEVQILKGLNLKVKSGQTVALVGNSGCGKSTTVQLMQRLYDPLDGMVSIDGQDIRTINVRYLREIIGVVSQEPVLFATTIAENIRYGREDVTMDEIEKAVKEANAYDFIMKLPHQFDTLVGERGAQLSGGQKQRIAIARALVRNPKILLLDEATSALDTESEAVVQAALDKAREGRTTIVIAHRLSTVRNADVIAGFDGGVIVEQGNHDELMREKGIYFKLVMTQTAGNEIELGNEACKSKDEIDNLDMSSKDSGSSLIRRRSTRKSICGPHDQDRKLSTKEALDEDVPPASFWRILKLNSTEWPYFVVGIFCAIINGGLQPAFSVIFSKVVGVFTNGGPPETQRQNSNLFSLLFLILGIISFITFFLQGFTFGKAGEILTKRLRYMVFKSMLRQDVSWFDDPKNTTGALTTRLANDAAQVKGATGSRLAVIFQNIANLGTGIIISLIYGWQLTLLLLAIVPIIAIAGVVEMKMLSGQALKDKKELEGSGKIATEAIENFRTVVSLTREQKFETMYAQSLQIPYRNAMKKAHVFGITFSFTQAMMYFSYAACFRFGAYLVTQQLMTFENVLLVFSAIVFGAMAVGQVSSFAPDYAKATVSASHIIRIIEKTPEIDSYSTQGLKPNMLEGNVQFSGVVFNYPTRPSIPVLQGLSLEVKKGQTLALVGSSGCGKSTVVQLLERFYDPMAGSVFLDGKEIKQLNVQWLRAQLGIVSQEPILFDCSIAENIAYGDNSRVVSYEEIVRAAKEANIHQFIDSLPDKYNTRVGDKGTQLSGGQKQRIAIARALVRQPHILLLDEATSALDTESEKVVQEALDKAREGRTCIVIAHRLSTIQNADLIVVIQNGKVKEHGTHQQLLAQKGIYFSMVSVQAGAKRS

For `CNC(=O)c1cnn(-c2nc(N)c3ncn([C@@H]4O[C@H](CO)[C@@H](O)[C@H]4O)c3n2)c1` [Lexiscan®, 1-[6-amino-9-[(2R,3R,4S,5R)-3,4-dihydroxy-5-(hydroxymethyl)oxolan-2-yl]purin-2-yl]-N-methylpyrazole-4-carboxamide], the “Rho123 accumulation visualized by IFA” value (P-gp [1]) was “increased the accumulation of Rho123 beginning at 15 minutes to 1 hour”, the “Epirubicin fluorescent intensity in brain sections (cortex, cerebellum, hippocampus)” value (P-gp [2]; 10 mg/kg epirubicin i.v. with 0.05 mg/kg Lexiscan® or 50 mg/kg PSC833 for 15 minutes) was “Significant epirubicin intensity in the cerebral cortex, the cerebellum, and the hippocampus” and the “Epirubicin accumulation in the brain (fluorometry)” value (P-gp [2]; 10 mg/kg epirubicin i.v. with 0.05 mg/kg Lexiscan®, different time points) was “began to increase at 5 minutes; this was maintained up to 30 minutes and returned to baseline by 60 minutes”. For the same compound, the “Time at which effect on BCRP occurred” value (BCRP1/ABCG2) was 15 min and the “BCRP expression in brain” value (BCRP1/ABCG2; Lexiscan® treatment, 5 to 60 minutes) was “potently down-regulated BCRP expression by 15 minutes, after which its expression began to recover by 60 minutes”.
`CCNC(=O)[C@H]1O[C@@H](n2cnc3c(N)ncnc32)[C@H](O)[C@@H]1O` [NECA, (2S,3S,4R,5R)-5-(6-aminopurin-9-yl)-N-ethyl-3,4-dihydroxyoxolane-2-carboxamide] was tested, and the “Rho123 accumulation visualized by IFA” value (P-gp [1]) was “increased Rho123 accumulation at later time points, beginning at 4 hours; this was maintained for up to 24 hours”, the “Epirubicin accumulation in the brain (fluorometry)” value (P-gp [2]; 0.08 mg/kg NECA i.v., then 10 mg/kg epirubicin i.v. for 15 minutes) was “showed epirubicin accumulation in the brain that matched the kinetics of P-gp decrease” and the “BCRP expression level in brain” value (BCRP1/ABCG2; 2 and 18 hours after NECA) was “not significantly affected”.
